From patent publication US20120015364A1, “METHOD FOR THE SELECTION OF ENDOTHELIAL CELLS DEATH INDUCERS VIA NETRIN-1 AND ITS APPLICATIONS” (CENTRE NATIONAL DE LA RECHERCHE SCIENTIFIQUE (CNRS), priority 2009, published 2012)
Peptide text beside a SMILES is read from it. * marks the point of attachment. Cbz = O=C(OCc1ccccc1)*; CH2F = FC*

Key:
[1] = system: fli:egfp zebrafish embryos; assay: Morpholino knockdown of fli:egfp zebrafish embryos, trunk vasculature phenotype; format: in vivo
Procedure: Resource Center (University of Oregon) and maintained under standard breeding conditions at 28° C. (Lawson and Weinstein, 2002). Embryos were dechorionated using pronase enzymatic treatment and 6 ng of splice/translation blocking netrin-1, UNC5B and control morpholinos that were previously designed and characterized were injected alone or in combination in the high yolk of one to four-cells-stage embryos. A third splice-blocking morpholino specifically targeting netrin-1a was designed (GeneTools) and injected in embryos at the same dose. Finally, 3 ng of a translation-blocking morpholino targeting zebrafish ortholog of DAP kinase (GeneTools) was injected, leading to 35% decrease of DAP kinase mRNA expression in knocked-down embryos compared to control. Sequences of morpholinos are available upon request. Embryos were raised in E3 medium supplemented with 0.003% phenylthiourea to inhibit pigment formation. Rescue of phenotype induced by netrin-1a silencing was tested by adding 40 nM BAF in the E3 medium 4 hours after morpholinos injection. For TUNEL staining, embryos were fixed at 48 hpf in 4% PFA overnight at 4° C. They were then rinsed 10 minutes in PBS-Tween 0.1% (PBST) and progressively dehydrated in successive methanol baths (25, 50, 75 and 100%). […]

murine aortic rings = assay: Aortic ring matrigel assay (ex vivo); format: cell-based, mouse; conditions: netrin-1 150 ng/ml, z-VAD-fmk 20 nM, BAF 20 nM, VEGF 13 ng/ml; day 4
Procedure: Aortic ring assays were performed as described by Nicosia and colleagues (Nicosia and Ottinetti, 1990). Aortas were resected from Balb/C mice of 6 to 8 weeks of age, cleaned of periadventitial fat and connective tissues, rinsed twice in ECGM and cut in rings of 1 to 1.5 mm length. One hundred microliters of Growth factor reduced Matrigel (BD Biosciences) was added to each well of a 48-well tissue culture plate (Costar) and allowed to solidify for 30 min. at 37° C. Aortic rings were placed on the matrix layer, embedded in 100 μl of Matrigel, and allowed to recover in complete growth medium (ECGM, Promocell) for 24 hours. They were then treated or not with netrin-1 (150 ng/ml), z-VAD-fmk (Tebu; 20 nM), BAF (Sigma; 20 nM) or VEGF (Sigma; 13 ng/ml) and photographed with a phase contrast microscope on day 4. Microvessels outgrowth total length was calculated using AxioVision Release 4.6 software.

[2] = system: chick chorioallantoic membrane; assay: Chick chorioallantoic membrane (CAM) assay; format: in vivo; conditions: 8-day-old chick embryos, 3 days; netrin-1 150 ng/ml, z-VAD-fmk 20 nM, BAF 20 nM; p<0.02
Procedure: Chick chorioallantoic membrane assay (CAM) assay was performed as already described. White Leghorn eggs were incubated at 37° C. in a humidified atmosphere. After 72 hours of incubation, 3 ml albumen was removed and a square window was opened into the shell. The opening was closed with cellotape until day 8. Netrin-1 (150 ng/ml), z-VAD-fmk (Tebu; 20 nM), BAF (Sigma; 20 nM), or VEGF (Sigma) were then diluted in PBS and mixed with an equal volume of autoclaved 1% methylcellulose solution. Controls were prepared with vehicles only. Each sample solution (10 μl) was dropped on Parafilm and dried up. The methylcellulose disks were stripped off from the Parafilm and placed on a CAM of the 8-day-old chick embryos. After 3 days, CAMs were photographed and the angiogenic response was evaluated by measuring the number of secondary ectopic vessels sprouts under the methylcellulose disks using AxioVision Release 4.6 software. UNC5B silencing in CAM was achieved by injection of specific siRNA designed by Sigma-Proligo in CAM blood circulation at E.5, E.7 and E.9. Analysis was performed at E.11.

zebrafish embryos = assay: Apoptosis in zebrafish embryos (TUNEL staining, caspase-3 activity); format: in vivo; conditions: TUNEL immunostaining and caspase-3 activity; tsl-netrin-1a injected embryos
Procedure: Embryos were dechorionated using pronase enzymatic treatment and 6 ng of splice/translation blocking netrin-1, UNC5B and control morpholinos that were previously designed and characterized were injected alone or in combination in the high yolk of one to four-cells-stage embryos. A third splice-blocking morpholino specifically targeting netrin-1a was designed (GeneTools) and injected in embryos at the same dose. […] Embryos were raised in E3 medium supplemented with 0.003% phenylthiourea to inhibit pigment formation. Rescue of phenotype induced by netrin-1a silencing was tested by adding 40 nM BAF in the E3 medium 4 hours after morpholinos injection. For TUNEL staining, embryos were fixed at 48 hpf in 4% PFA overnight at 4° C. They were then rinsed 10 minutes in PBS-Tween 0.1% (PBST) and progressively dehydrated in successive methanol baths (25, 50, 75 and 100%). […] Caspase-3 activity assay was performed as described above on whole embryos at 24 h development.

HUVEC [3] = assay: Cell death upon serum starvation, trypan blue exclusion; format: cell-based, human; conditions: netrin 50 ng/ml, p<0.005
Procedure: (§1) Cell death assays were performed as described previously. Briefly, endothelial cells were seeded at 10 000 cells/cm2 in complete medium for 16 hours. Cell death was induced either by starvation in serum free medium (Endothelium Cell Basal Medium, Promocell) or by exposure to 50 μM etoposide. Netrin-1 was purchased from Axxora-Apotech. Cell death was scored by trypan blue exclusion assay as previously described. For detection of DNA fragmentation, treated cells cultured on coverslips were fixed 20 minutes in 4% paraformaldehyde (PFA) and Terminal deoxynucleodityl transferase mediated dUTP-biotin Nick End Labeling (TUNEL) was performed with 300 U/mL TUNEL enzyme (300 U/mL) and 6 μM biotinylated dUTP (Roche Diagnostics). Caspase-3 activity was measured using ApoAlert CPP32 kit from Clontech (USA) and by immunostaining on fixed cells using anti-active-caspase-3 antibody (Cell Signaling) as described in (Llambi et al., 2005; Tauszig-Delamasure et al., 2007). Toxilight assay was performed according to manufacturer's instructions (Lonza). For netrin-1 titration experiment, rat recombinant UNC5H2-Fc (R&D) was used at 1 μg/ml.

HUAEC [4] = assay: as above; format: cell-based, human; conditions: netrin 50 ng/ml, p<0.005
Procedure: as §1

DAP kinase = DAP kinase phosphorylation, Western blot; format: cell-based, human; conditions: HUVEC; netrin-1 in serum free medium 24 hours
Procedure: Endothelial cells seeded at 10 000 cells/cm^2 and treated or not with netrin-1 in serum free medium (Endothelium Cell Basal Medium, Promocell) for 24 hours were collected and lysed in 50 mM HEPES pH 7.6, 125 mM NaCl, 5 mM EDTA and 0.1% NP-40 buffer in the presence of protease inhibitors. Protein extracts were immunoblotted with anti-DAP-kinase and anti-phospho-DAP kinase antibodies (Sigma). For immunofluorescence analysis, cells were seeded on LabTek chamber slides and fixed 15 minutes in 4% PFA.

HUVEC [5] = assay: TUNEL staining of apoptosis; format: cell-based, human; conditions: netrin 50 ng/ml
Procedure: as §1

HUVEC [6] = assay: Etoposide-induced cell death, Toxilight assay; format: cell-based, human; conditions: overnight treatment with 50 μM etoposide; p<0.05
Procedure: as §1

HUAEC [7] = assay: Etoposide-induced cell death, Toxilight assay; format: cell-based, human; conditions: overnight treatment with 50 μM etoposide; p<0.05
Procedure: as §1

HUAEC [8] = assay: Caspase-3 activity assay (ApoAlert CPP32 kit, active caspase-3 immunostaining); format: cell-based, human; conditions: netrin 50 ng/ml, p<0.005
Procedure: as §1

HUVEC [9] = assay: as above; format: cell-based, human; conditions: netrin 50 ng/ml, p<0.005
Procedure: Human umbilical vein and artery cells (Promocell, passages<8) were cultured in endothelial cell growth medium (ECGM, Promocell) supplemented with 2% serum (kit, Promocell) until they reach 80% confluence. HUVEC were transfected using the AMAXA Nucleofector system, according to manufacturer's instructions. In brief, 500 000 cells were resuspended in 100 μl HUVEC Nucleofector solution and transfected with 1 μg siRNA or 1.5 μg plasmid DNA and 0.5 μg GFP-encoding control plasmid. UNC5A, UNC5B and scramble siRNAs were designed by Sigma-Proligo. Plasmids encoding mutant DAP kinase (DAP kinase ΔCam and DAP kinase DD) were described previously (Llambi et al., 2005). After transfection, cells were cultured in 1% growth medium and collected after 24 hours.
Cell death assays were performed as described previously. Briefly, endothelial cells were seeded at 10 000 cells/cm2 in complete medium for 16 hours. Cell death was induced either by starvation in serum free medium (Endothelium Cell Basal Medium, Promocell) or by exposure to 50 μM etoposide. Netrin-1 was purchased from Axxora-Apotech. Cell death was scored by trypan blue exclusion assay as previously described. […] Caspase-3 activity was measured using ApoAlert CPP32 kit from Clontech (USA) and by immunostaining on fixed cells using anti-active-caspase-3 antibody (Cell Signaling) as described in (Llambi et al., 2005; Tauszig-Delamasure et al., 2007). […]

| Compound | embryos with PAV formation ([1]; spl-netrin-1a injected embryos treated with 40 nM BAF, n=54, 42.7% in untreated, p<0.0001) | embryos displaying at least partial ISVs ([1]; tsl-netrin-1a knock-down embryos treated with BAF, 23.0% in controls, p<0.001) | capillary sprouting / microvessels formation from aortic rings (murine aortic rings) | neovessel formation in vicinity of methylcellulose discs [2] | increase of cell death after netrin-1a silencing (zebrafish embryos) | HUVEC cell death (HUVEC [3]) | HUAEC cell death (HUAEC [4]) | DAP kinase phosphorylation (DAP kinase) | number of TUNEL positive cells (HUVEC [5]) | HUVEC cell death upon etoposide (HUVEC [6]) | HUAEC cell death upon etoposide (HUAEC [7]) | reduced caspase-3 activity (HUAEC [8]) | reduced caspase-3 activity (HUVEC [9]) |
| --- | --- | --- | --- | --- | --- | --- | --- | --- | --- | --- | --- | --- | --- |
| COC(=O)C[C@H](NC(=O)OC(C)(C)C)C(=O)CF [BAF] | 92.6% | 54.5% | induced neocapillary tube formation | significant increase in neovessel formation | rescued the increase of cell death |  |  |  |  |  |  |  |  |
| COC(=O)C[C@H](NC(=O)[C@H](C)NC(=O)[C@@H](NC(=O)OCc1ccccc1)C(C)C)C(=O)CF [z-VAD-fmk, reference compound] (Cbz-Val-Ala-Asp(OMe)-CH2F) |  |  | induced neocapillary tube formation | significant increase in neovessel formation |  |  |  |  |  |  |  |  |  |
| VEGF |  |  | enhanced capillary sprouting | significant increase in neovessel formation |  |  |  |  |  |  |  |  |  |
| netrin-1 |  |  | enhanced capillary sprouting | significant increase in neovessel formation |  | inhibited | inhibited | increase in DAP kinase phosphorylation | decreased number of TUNEL positive cells | inhibits | inhibits | ≤ 40% | up to 30% |
